In assay [1] the target is purified human, His-tagged PRC2 complex (Homo sapiens, UniProt O75530+Q15910). Put plainly: Hot Spot HMT assay: inhibition of PRC2 enzymatic activity (transfer of tritiated methyl from SAM to core histone, filter binding). The conditions noted are these: Inhibition of PRC2-mediated enzymatic activity; 10 nM PRC2 complex, 0.05 mg/ml core histone H3, 1 uM 3H-SAM, 1 hr at 30°C. The format is biochemical. The source says:
The assay uses purified human, His-tagged PRC2 complex, including N-terminal His-tagged EZH2 enzyme, N-terminal Flag-tagged embryonic ectoderm development protein (EED), N-terminal His-tagged suppressor of zeste 12 (SUZ12), N-terminal His-tagged AEBP2, and N-terminal His-tagged RbAp48. In this assay, the transfer of the tritiated methyl group from radiolabeled S-adenosyl methionine (SAM) to purified core histone protein by EZH2 is quantitated after filtration to determine the activity of the core PRC2 complex in the presence and absence of compound.
The initial starting concentration for the serial dilutions of each compound was 1.0 µM. […] SAH (S-(5-adenosyl)-L-homocysteine) was used as a positive control for assay validation.
An aliquot of each serial dilution of test compound was added to deep 384 well plate using Acoustic Technology instrument (Echo 550, LabCyte) containing reaction buffer (50 mM Tris-HCl (pH 8.)), 0.01% Brij35, 1 mM EDTA, 1 mM DTT, 1 mM PMSF and 1% DMSO), 10 nM purified PRC2 complex and 0.05 mg/ml core histone H3 in a 5 µl volume. The reaction was mixed gently and then pre-incubated for 20 min at 30°C. The enzymatic reaction was initiated by adding 1 uM S-Adenosyl-L-[methyl - ^3H]methionine and incubated for 1 hr at 30°C. After 1 hr, the reaction product was detected using a filter binding method and the amount of tritiated H3 core histone was quantitated using a scintillation counter.

For another assay, the system named is Karpas 422 cells. Put plainly: Karpas 422 cell viability, CTG (Cell Titre Glo) assay. As to conditions: Homo sapiens; Inhibition of proliferation of Karpas 422 cells (EZH2 Y641N); viability measured Day 4, Day 7 or Day 11, time point of the tabulated values not stated. The format is cell-based, human. Here is the method:
Karpas 422 cell line is a human B cell non-Hodgkin's lymphoma cell line established from a patient having DLBCL. This EZH2 heterozygotic cell line expresses a mutant form of EZH2 enzyme (Y641N) that increases histone H3 methylation and this mutation has been implicated in the tumorgenesis of lymphomas, such as DLBCL.
Karpas 422 cells (PHE cat no., 06101702) were cultured in RPMI medium supplemented with 20% fetal bovine serum and 1% penicillin/1% streptomycin and plated at a density of 1000 cells/90 µl/well in 96 well white assay plates. A dose response curve for compounds of the present invention was determined by adding a 10µl aliquot of stock solutions of varying concentrations of compounds to the same medium in each well, over a concentration range of 10µM using 3-fold dilutions to a final concentration of 1.5nM. The plates were incubated at 37° C for predetermined time periods, Day 4, Day 7, or Day 11, and the viability of the cells was measured using a CTG assay kit (Cell Titre Glo; Promega cat.no G7573) on Day 4 and Day 7 in accordance with the manufacturer's instructions.
For the viability assay for the Day 11 plates, the plates were subjected to centrifugation at 1100 rpm for five minutes on Day 7 and the supernatant was removed by aspiration. The cells were resuspended in 90 µl aliquot of the appropriate growth medium lacking the compound followed by addition of 10 µl of a 10X stock of the same compound at the same concentration. The viability of the Day 11 cells was measured using the CTG assay kit described above in accordance with the manufacturer's instructions. The IC50 values for each compound at each predetermined time point were calculated using Graph pad PRISM software and the results are shown in Table 15. A = ≤250 nM; B = […] - ≤500 nM; and C = >500 nM.

Where only a bound is given, the exact number is not on record here.

Drawing on patent EP4043466B1, “PRC2 INHIBITORS” (Mirati Therapeutics, Inc., priority 2018, dated 2019), this text covers IC50 for 20 compounds.

purified human, His-tagged PRC2 complex, sequence (Q15910 whole entry): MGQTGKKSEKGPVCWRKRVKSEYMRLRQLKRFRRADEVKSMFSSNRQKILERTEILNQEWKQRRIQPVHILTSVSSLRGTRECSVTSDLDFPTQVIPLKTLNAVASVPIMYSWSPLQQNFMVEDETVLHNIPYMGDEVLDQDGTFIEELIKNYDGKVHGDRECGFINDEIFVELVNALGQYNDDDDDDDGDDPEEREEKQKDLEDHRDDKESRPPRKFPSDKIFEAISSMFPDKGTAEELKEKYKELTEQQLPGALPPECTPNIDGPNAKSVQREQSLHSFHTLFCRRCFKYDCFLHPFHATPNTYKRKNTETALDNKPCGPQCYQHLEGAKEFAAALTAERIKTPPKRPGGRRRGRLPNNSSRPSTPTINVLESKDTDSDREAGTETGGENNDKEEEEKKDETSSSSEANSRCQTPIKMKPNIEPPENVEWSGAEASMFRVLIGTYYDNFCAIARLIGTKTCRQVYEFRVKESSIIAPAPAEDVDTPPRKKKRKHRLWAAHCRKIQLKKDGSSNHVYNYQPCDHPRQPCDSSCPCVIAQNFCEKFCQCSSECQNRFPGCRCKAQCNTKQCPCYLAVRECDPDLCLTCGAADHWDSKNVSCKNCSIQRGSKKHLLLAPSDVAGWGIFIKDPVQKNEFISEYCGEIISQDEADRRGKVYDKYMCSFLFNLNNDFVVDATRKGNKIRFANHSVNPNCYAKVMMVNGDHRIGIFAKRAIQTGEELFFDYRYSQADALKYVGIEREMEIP
purified human, His-tagged PRC2 complex, sequence (O75530 whole entry): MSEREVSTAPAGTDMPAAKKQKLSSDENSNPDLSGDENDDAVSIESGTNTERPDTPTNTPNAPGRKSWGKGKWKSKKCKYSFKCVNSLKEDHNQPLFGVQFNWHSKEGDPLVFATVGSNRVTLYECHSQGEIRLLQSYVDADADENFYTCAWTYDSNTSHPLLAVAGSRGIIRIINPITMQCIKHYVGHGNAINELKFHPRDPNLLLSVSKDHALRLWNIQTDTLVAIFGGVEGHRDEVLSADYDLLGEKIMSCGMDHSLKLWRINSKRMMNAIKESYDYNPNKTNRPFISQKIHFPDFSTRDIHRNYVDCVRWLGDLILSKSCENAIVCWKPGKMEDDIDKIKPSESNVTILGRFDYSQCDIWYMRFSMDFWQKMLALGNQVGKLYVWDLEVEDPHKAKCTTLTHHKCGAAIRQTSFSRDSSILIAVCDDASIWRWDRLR
purified human, His-tagged PRC2 complex, sequence (Q15022 whole entry partner): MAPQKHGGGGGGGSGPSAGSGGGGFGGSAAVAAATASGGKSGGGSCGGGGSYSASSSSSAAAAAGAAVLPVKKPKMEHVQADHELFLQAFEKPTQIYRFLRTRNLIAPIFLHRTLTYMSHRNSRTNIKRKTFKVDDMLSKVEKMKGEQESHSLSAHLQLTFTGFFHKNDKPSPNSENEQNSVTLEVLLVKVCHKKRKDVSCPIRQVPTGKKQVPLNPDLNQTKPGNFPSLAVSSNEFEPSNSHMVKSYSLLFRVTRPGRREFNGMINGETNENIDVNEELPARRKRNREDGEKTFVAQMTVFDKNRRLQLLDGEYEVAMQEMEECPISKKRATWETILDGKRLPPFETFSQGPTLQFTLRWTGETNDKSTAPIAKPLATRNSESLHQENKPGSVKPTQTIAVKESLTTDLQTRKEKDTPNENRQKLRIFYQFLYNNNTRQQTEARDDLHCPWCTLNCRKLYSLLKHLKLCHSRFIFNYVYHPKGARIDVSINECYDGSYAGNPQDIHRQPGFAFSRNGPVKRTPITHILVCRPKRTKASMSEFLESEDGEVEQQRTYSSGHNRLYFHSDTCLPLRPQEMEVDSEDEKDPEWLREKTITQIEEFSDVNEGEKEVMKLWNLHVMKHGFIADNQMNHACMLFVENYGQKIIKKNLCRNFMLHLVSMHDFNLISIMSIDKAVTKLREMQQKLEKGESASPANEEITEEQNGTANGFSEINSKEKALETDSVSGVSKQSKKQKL
purified human, His-tagged PRC2 complex, sequence (Q6ZN18 whole entry partner): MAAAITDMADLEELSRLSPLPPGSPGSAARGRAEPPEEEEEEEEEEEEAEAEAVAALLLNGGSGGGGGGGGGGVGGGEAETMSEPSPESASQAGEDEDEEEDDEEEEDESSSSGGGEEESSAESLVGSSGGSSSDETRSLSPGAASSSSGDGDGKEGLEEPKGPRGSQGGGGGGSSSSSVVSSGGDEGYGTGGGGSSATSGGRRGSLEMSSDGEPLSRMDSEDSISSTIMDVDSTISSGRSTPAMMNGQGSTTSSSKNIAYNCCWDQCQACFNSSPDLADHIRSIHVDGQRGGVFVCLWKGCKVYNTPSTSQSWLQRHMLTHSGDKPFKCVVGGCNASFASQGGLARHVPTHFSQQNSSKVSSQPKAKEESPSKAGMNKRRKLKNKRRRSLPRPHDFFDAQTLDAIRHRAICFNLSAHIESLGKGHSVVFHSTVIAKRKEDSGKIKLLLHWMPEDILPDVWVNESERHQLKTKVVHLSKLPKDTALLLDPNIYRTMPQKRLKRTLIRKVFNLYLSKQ
purified human, His-tagged PRC2 complex, sequence (Q09028 whole entry partner): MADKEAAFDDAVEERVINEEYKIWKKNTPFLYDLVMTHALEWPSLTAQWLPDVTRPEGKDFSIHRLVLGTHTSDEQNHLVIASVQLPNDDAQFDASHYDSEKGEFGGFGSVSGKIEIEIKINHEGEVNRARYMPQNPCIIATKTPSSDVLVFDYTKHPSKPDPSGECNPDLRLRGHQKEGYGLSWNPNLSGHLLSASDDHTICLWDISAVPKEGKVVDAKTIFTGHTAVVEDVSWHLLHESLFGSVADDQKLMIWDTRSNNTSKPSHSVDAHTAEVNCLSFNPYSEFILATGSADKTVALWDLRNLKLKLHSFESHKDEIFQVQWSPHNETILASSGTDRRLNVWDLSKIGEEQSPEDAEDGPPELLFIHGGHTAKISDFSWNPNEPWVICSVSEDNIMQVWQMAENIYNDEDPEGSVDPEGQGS

On to `Cc1nn(C(C)C)cc1-c1cnc(NCc2c(F)ccc3c2CCO3)n2cc(C(=O)O)nc12` [Example 5, 5-(((5-fluoro-2,3-dihydrobenzofuran-4-yl)methyl)amino)-8-(1-isopropyl-3-methyl-1H-pyrazol-4-yl)imidazo[1,2-c]pyrimidine-2-carboxylic acid], for which the results for the IC50 (in assay [1]; with Karpas 422 cells) were less than 100 nM and more than 500 nM, respectively. Taken in the same sequence, the figures for `Cc1nc(C2CC2)ncc1-c1cnc(NCc2c(F)ccc3c2CCO3)n2cc(C(=O)O)nc12` [Example 7, 8-(2-cyclopropyl-4-methylpyrimidin-5-yl)-5-(((5-fluoro-2,3-dihydrobenzofuran-4-yl)methyl)amino)imidazo[1,2-c]pyrimidine-2-carboxylic acid] were less than 100 nM and more than 500 nM. Taken in the same sequence, the figures for `Cc1cc(-c2cnc(NCc3c(F)ccc4occc34)n3cc(C(=O)O)nc23)n(C)n1` [Example 9, 8-(1,3-dimethyl-1H-pyrazol-5-yl)-5-(((5-fluorobenzofuran-4-yl)methyl)amino)imidazo[1,2-c]pyrimidine-2-carboxylic acid] were less than 100 nM and more than 500 nM. The matching figures for `Cc1ncccc1-c1cnc(NCc2c(F)ccc3occc23)n2cc(C(N)=O)nc12` [Example 12, 5-(((5-fluorobenzofuran-4-yl)methyl)amino)-8-(2-methylpyridin-3-yl)imidazo[1,2-c]pyrimidine-2-carboxamide]: less than 100 nM and more than 500 nM.

Take `Cc1nn(C(C)C)cc1-c1cnc(NCc2c(F)ccc3c2CCO3)n2cc(C(N)=O)nc12` [Example 13, 5-(((5-fluoro-2,3-dihydrobenzofuran-4-yl)methyl)amino)-8-(1-isopropyl-3-methyl-1H-pyrazol-4-yl)imidazo[1,2-c]pyrimidine-2-carboxamide]: the IC50 in assay [1] was less than 100 nM; in the assay with Karpas 422 cells it was 250 to 500 nM.

As for `Cc1c(-c2cnc(NCc3c(F)ccc4c3CCO4)n3cc(C(N)=O)nc23)cnn1C(C)C` [Example 16, 5-(((5-fluoro-2,3-dihydrobenzofuran-4-yl)methyl)amino)-8-(1-isopropyl-5-methyl-1H-pyrazol-4-yl)imidazo[1,2-c]pyrimidine-2-carboxamide], the IC50 in assay [1] is less than 100 nM; with Karpas 422 cells it was 250 to 500 nM. For `Cc1cc(-c2cnc(NCc3cccc4c3CCO4)n3cc(C(N)=O)nc23)n(C)n1` [Example 19, 5-(((2,3-dihydrobenzofuran-4-yl)methyl)amino)-8-(1,3-dimethyl-1H-pyrazol-5-yl)imidazo[1,2-c]pyrimidine-2-carboxamide], the 50% inhibitory concentration (IC50) in assay [1] was less than 100 nM; in the assay on Karpas 422 cells, 250 to 500 nM. In the case of `CNC(=O)c1cn2c(NCc3c(F)ccc4c3CCO4)ncc(-c3cc(C)nn3C)c2n1` [Example 20, 8-(1,3-dimethyl-1H-pyrazol-5-yl)-5-(((5-fluoro-2,3-dihydrobenzofuran-4-yl)methyl)amino)-N-methylimidazo[1,2-c]pyrimidine-2-carboxamide], the IC50 in assay [1] is less than 100 nM; in the assay with Karpas 422 cells it was not above 250 nM. On to `Cc1cc(-c2cnc(NCc3c(F)ccc4c3CCO4)n3cc(C(=O)N(C)C)nc23)n(C)n1` [Example 21, 8-(1,3-dimethyl-1H-pyrazol-5-yl)-5-(((5-fluoro-2,3-dihydrobenzofuran-4-yl)methyl)amino)-N,N-dimethylimidazo[1,2-c]pyrimidine-2-carboxamide], for which the IC50 in assay [1] was more than 500 nM; in the assay with Karpas 422 cells, not above 250 nM.

As to `Cc1nc(C2CC2)ncc1-c1cnc(NCc2c(F)ccc3c2CCO3)n2cc(C#N)nc12` [Example 25, 8-(2-cyclopropyl-4-methylpyrimidin-5-yl)-5-(((5-fluoro-2,3-dihydrobenzofuran-4-yl)methyl)amino)imidazo[1,2-c]pyrimidine-2-carbonitrile], the 50% inhibitory concentration (IC50) is 100 to 500 nM in assay [1] and 250 to 500 nM with Karpas 422 cells. Taken in the same sequence, the figures for `Cc1cc(-c2cnc(NCc3c(Cl)ccc4c3CCO4)n3cc(C#N)nc23)n(C)n1` [Example 29, 5-(((5-chloro-2,3-dihydrobenzofuran-4-yl)methyl)amino)-8-(1,3-dimethyl-1H-pyrazol-5-yl)imidazo[1,2-c]pyrimidine-2-carbonitrile] were more than 500 nM and more than 500 nM. The matching figures for `CN(C)Cc1ccc(-c2cnc(NCc3c(F)ccc4c3CCO4)n3cc(C#N)nc23)c(Cl)c1` [Example 33, 8-(2-chloro-4-((dimethylamino)methyl)phenyl)-5-(((5-fluoro-2,3-dihydrobenzofuran-4-yl)methyl)amino)imidazo[1,2-c]pyrimidine-2-carbonitrile]: less than 100 nM and not above 250 nM. Taken in the same sequence, the figures for `CN(C)Cc1ccc(-c2cnc(NCc3c(F)ccc4c3CCO4)n3cc(C#N)nc23)c(F)c1F` [Example 37, 8-(4-((dimethylamino)methyl)-2,3-difluorophenyl)-5-(((5-fluoro-2,3-dihydrobenzofuran-4-yl)methyl)amino)imidazo[1,2-c]pyrimidine-2-carbonitrile] were less than 100 nM and not above 250 nM. Regarding `CN(C)Cc1ncc(-c2cnc(NCc3c(F)ccc4c3CCO4)n3cc(C#N)nc23)cc1F` [Example 40, 8-(6-((dimethylamino)methyl)-5-fluoropyridin-3-yl)-5-(((5-fluoro-2,3-dihydrobenzofuran-4-yl)methyl)amino)imidazo[1,2-c]pyrimidine-2-carbonitrile], the IC50 is less than 100 nM in assay [1] and not above 250 nM in the assay on Karpas 422 cells. In the case of `Cc1cc(-c2cnc(NCc3c(F)ccc4c3CCO4)n3cc(C#N)nc23)cnn1` [Example 41, 5-(((5-fluoro-2,3-dihydrobenzofuran-4-yl)methyl)amino)-8-(6-methylpyridazin-4-yl)imidazo[1,2-c]pyrimidine-2-carbonitrile], the values for the IC50 (in assay [1]; in the assay with Karpas 422 cells) were less than 100 nM and not above 250 nM, respectively. The matching figures for `CN(C)C(=O)c1ccc(-c2cnc(NCc3c(F)ccc4c3CCO4)n3cc(C#N)nc23)c(F)c1F` [Example 42, 4-(2-cyano-5-(((5-fluoro-2,3-dihydrobenzofuran-4-yl)methyl)amino)imidazo[1,2-c]pyrimidin-8-yl)-2,3-difluoro-N,N-dimethylbenzamide]: less than 100 nM and not above 250 nM. The matching figures for `Cc1cc(C(=O)N(C)C)c(F)cc1-c1cnc(NCc2c(F)ccc3c2CCO3)n2cc(C#N)nc12` [Example 43, 4-(2-cyano-5-(((5-fluoro-2,3-dihydrobenzofuran-4-yl)methyl)amlno)lmldazo[1,2-c]pyrlmldln-8-yl)-2-fluoro-N,N,5-trimethylbenzamide]: less than 100 nM and not above 250 nM.

On to `Cc1cc(C(=O)N(C)C)ccc1-c1cnc(NCc2c(F)ccc3c2CCO3)n2cc(C#N)nc12` [Example 44, 4-(2-cyano-5-(((5-fluoro-2,3-dihydrobenzofuran-4-yl)methyl)amlno)lmldazo[1,2-c]pyrlmldln-8-yl)-N,N,3-trimethylbenzamide], for which the IC50 in assay [1] is less than 100 nM; in the assay on Karpas 422 cells it was not above 250 nM. `Cc1cc(S(C)(=O)=O)ccc1-c1cnc(NCc2c(F)ccc3c2CCO3)n2cc(C#N)nc12` [Example 87, 5-(((5-fluoro-2,3-dihydrobenzofuran-4-yl)methyl)amino)-8-(2-methyl-4-(methylsulfonyl)phenyl)imidazo[1,2-c]pyrimidine-2-carbonitrile] registered an IC50 in the assay on Karpas 422 cells not above 250 nM. The same measure, in the same setting: to `Cc1cn(-c2cnc(NCc3c(F)ccc4c3CCO4)n3cc(C#N)nc23)cn1` [Example 139, 5-(((5-fluoro-2,3-dihydrobenzofuran-4-yl)methyl)amino)-8-(4-methyl-1H-imidazol-1-yl)imidazo[1,2-c]pyrimidine-2-carbonitrile] belongs not above 250 nM.

As a reminder, the IC50 is the concentration that inhibits the measured activity by half.
